Values of other authors, collected in patent US20110183941A1 (priority 2010, published 2011).

Conditions: at room temperature

In the case of `O=C(O)CNCP(=O)(O)O` [glyphosate], the solubility is given as 1.5%.
